The test system of one assay is THP1 cells. Briefly: IFNB1 mRNA expression, qRT-PCR, THP1 cells. It is filed as cell-based. The following applies: Homo sapiens, read-out: THP1, qRT-PCR IC50. For orientation: Real-time PCR tracks product formation cycle by cycle.
For the next assay, the system named is human PBMCs. The assay can be described thus: IFNB1 mRNA expression, qRT-PCR, human PBMCs. It is filed as cell-based. The note with it: PBMC, 4 hours post-transfection of dsDNA.
The next assay concerns THP1-Dual cells. The assay can be described thus: Cell-based Lucia luciferase assay in THP1-Dual cells (dsDNA transfection). The following applies: Homo sapiens, 1 h pre-incubation, 100-bp dsDNA transfection for 24 h.
The target in a further assay is T1, h-cGAS (Homo sapiens, UniProt Q8N884).
T1 construct: The final concentration of full-length h-cGAS, dsDNA, ATP, and GTP were 100 nM
T1 sequence (Q8N884 whole entry): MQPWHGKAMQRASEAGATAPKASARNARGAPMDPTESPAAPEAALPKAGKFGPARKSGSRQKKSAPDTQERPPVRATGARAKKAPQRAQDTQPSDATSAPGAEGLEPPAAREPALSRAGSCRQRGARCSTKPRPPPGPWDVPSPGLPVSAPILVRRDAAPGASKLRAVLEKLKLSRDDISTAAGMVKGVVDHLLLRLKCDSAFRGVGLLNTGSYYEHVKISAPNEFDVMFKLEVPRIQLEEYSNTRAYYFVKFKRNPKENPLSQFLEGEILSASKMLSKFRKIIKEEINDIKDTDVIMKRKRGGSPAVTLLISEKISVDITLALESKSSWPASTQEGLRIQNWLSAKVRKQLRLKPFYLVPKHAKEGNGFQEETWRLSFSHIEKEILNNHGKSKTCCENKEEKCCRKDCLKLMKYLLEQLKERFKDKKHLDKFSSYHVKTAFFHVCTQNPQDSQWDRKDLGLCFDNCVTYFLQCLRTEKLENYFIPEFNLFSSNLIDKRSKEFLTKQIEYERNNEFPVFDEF
The assay can be described thus: cGAS biochemical assay, RapidFire 365 mass spectrometry (RF-MS). The note with it: full-length h-cGAS 100 nM, dsDNA 25 nM, ATP and GTP 100 μM, 7 h at RT.

For assay [1], the system named is primary human macrophage cells. The assay can be described thus: IFNB1 mRNA expression, qRT-PCR, primary human macrophages. The class given is cell-based. The following applies: read-out: Human Macrophage, qRT-PCR IC50.
The mark [2] stands for this setting: THP-1, IFNB1 mRNA, 4 hours post-transfection of dsDNA.
[3] abbreviates: fresh PBMCs, read-out: Fresh human PBMCs, qRT-PCR IC50.
[4] abbreviates: IFNB1 mRNA, 4 hours post-transfection of dsDNA.

Like-named read-outs stand apart in the source and are kept apart here.

Regarding `Cn1ccc(-c2cc(Cl)c(Cl)c3[nH]c4c(c23)CN(C(=O)CO)CC4)n1` [TDI-008077], the IC50 is 930 nM with THP1 cells (setting [2]); 1150 nM in the assay on human PBMCs (setting [3]); 3320 nM in the assay on THP1-Dual cells; 14.6 nM on h-cGAS; 860 nM in assay [1] (setting [4]).
In the case of `Nc1ccc(-c2cc(Cl)c(Cl)c3[nH]c4c(c23)CN(C(=O)CO)CC4)cn1` [TDI-008087], the IC50 with THP1 cells (THP-1, 4 h) was found to be 950 nM; with THP1-Dual cells, 1970 nM; in assay [1] (4 h), 620 nM.
Consider `Cn1cc(-c2cc(Cl)c(Cl)c3[nH]c4c(c23)CN(C(=O)CO)CC4)cn1` [TDI-007635], for which the IC50 with THP1 cells (setting [2]) turned out to be 2140 nM; in the assay on THP1-Dual cells, 8140 nM; against h-cGAS it was 42.8 nM.
With `O=C(CO)N1CCc2[nH]c3c(Cl)c(Cl)cc(-c4cn[nH]c4)c3c2C1` [TDI-007445, 1-(6,7-Dichloro-9-(1H-pyrazol-4-yl)-1,3,4,5-tetrahydro-2H-pyrido[4,3-b]indol-2-yl)-2-hydroxyethan-1-one], the IC50 with THP1 cells (setting [2]) worked out at 1440 nM; in the assay on THP1-Dual cells, 5260 nM; in assay [1] (setting [4]), 1200 nM.
Take `Cc1nnc(-c2cc(Cl)c(Cl)c3[nH]c4c(c23)CN(C(=O)CO)CC4)o1` [TDI-008777]: the IC50 in the assay with THP1-Dual cells is 12900 nM; at h-cGAS it was 30.5 nM.
Take `Cn1ccc(-c2cc(Cl)c(F)c3[nH]c4c(c23)CN(C(=O)CO)CC4)n1` [TDI-008246, 1-(7-Chloro-6-fluoro-9-(1-methyl-1H-pyrazol-3-yl)-1,3,4,5-tetrahydro-2H-pyrido[4,3-b]indol-2-yl)-2-hydroxyethan-1-one]: the IC50 was 1090 nM in the assay with THP1 cells (setting [2]); 1160 nM in the assay with human PBMCs (freeze-thawed PBMCs, read-out: Freeze-thawed human PBMCs, qRT-PCR IC50); 1120 nM in the assay with human PBMCs (setting [3]); 1700 nM in the assay with THP1-Dual cells; 23 nM against h-cGAS; 600 nM in assay [1] (setting [4]).
In the case of `O=C(CO)N1CCc2[nH]c3c(Cl)c(Cl)cc(-c4ccccc4)c3c2C1` [TDI-008071], the values for the IC50 with THP1-Dual cells and against h-cGAS were 9000 nM and 39.3 nM, respectively.

As usually defined, the IC50 is the point on the concentration scale where inhibition reaches its midpoint.
